Experimental data as given in US20120122860A1, “SOLID FORMS OF SULFONAMIDES AND AMINO ACIDS” (Plexxikon, Inc., priority 2009, published 2012).

Tests used:
[1] = biological target: Kit (Homo sapiens, UniProt P10721); assay: Kinase activity assay, Kit
[2] = biological target: T1, A-Raf (Homo sapiens, UniProt P10398); assay: Kinase activity assay, A-Raf
T1 sequence (P10398 1-606): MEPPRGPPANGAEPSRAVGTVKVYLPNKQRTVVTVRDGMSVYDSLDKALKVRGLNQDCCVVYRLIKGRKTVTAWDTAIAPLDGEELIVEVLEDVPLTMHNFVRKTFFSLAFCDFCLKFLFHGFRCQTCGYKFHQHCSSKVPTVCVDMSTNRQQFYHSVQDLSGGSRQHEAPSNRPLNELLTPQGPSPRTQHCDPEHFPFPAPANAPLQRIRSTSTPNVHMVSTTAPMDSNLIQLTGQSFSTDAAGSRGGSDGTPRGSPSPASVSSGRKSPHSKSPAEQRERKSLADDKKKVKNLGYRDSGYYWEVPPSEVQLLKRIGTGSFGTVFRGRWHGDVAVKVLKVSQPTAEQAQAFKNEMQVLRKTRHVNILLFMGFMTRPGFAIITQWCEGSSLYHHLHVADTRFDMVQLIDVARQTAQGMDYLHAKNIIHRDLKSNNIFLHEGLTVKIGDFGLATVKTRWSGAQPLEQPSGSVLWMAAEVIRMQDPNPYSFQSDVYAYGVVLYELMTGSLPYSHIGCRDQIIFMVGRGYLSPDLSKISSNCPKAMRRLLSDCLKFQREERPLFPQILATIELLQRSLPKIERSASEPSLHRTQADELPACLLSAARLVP

[3] = biological target: Fms (Homo sapiens, UniProt P07333); assay: Kinase activity assay, Fms
[4] = biological target: B-Raf V600E (Homo sapiens, UniProt P15056, V600E); assay: Kinase activity assay, B-Raf V600E; assay type: biochemical; settings: read-out: activity toward kinase B-Raf V600E, IC50
[5] = biological target: Src (Homo sapiens, UniProt P12931); assay: Kinase activity assay, Src
[6] = biological target: Kdr (Homo sapiens, UniProt P35968); assay: Kinase activity assay, Kdr
[7] = biological target: B-Raf (Homo sapiens, UniProt P15056); assay: Kinase activity assay, B-Raf; assay type: biochemical; settings: read-out: activity toward kinase B-Raf, IC50
[8] = biological target: C-Raf (Homo sapiens, UniProt P04049); assay: Kinase activity assay, C-Raf

Measured: IC50

Fms, sequence (P07333 20-972): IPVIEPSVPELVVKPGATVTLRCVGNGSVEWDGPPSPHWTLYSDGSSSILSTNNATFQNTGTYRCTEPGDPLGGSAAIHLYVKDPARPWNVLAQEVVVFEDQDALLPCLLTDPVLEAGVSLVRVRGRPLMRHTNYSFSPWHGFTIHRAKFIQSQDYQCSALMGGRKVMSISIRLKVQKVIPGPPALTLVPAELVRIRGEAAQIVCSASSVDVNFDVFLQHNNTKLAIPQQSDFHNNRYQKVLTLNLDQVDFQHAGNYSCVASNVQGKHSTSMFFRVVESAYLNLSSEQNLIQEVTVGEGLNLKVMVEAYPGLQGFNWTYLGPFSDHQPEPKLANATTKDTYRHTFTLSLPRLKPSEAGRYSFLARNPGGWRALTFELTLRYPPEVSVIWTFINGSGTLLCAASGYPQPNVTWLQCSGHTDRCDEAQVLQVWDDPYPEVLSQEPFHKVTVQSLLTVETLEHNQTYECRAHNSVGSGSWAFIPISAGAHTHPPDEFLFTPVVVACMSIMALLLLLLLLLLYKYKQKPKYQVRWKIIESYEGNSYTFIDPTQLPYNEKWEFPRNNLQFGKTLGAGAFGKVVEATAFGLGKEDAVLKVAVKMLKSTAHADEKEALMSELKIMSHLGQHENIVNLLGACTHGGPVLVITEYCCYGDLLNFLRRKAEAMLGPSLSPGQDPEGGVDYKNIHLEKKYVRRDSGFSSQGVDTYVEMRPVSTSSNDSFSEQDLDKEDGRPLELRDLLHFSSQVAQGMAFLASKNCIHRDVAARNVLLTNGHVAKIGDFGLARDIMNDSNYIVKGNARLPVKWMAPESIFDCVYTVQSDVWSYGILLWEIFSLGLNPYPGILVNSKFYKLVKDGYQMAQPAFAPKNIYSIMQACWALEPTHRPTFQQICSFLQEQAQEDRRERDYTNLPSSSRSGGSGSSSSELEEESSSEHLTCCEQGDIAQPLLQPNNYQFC
C-Raf, sequence (P04049 whole entry): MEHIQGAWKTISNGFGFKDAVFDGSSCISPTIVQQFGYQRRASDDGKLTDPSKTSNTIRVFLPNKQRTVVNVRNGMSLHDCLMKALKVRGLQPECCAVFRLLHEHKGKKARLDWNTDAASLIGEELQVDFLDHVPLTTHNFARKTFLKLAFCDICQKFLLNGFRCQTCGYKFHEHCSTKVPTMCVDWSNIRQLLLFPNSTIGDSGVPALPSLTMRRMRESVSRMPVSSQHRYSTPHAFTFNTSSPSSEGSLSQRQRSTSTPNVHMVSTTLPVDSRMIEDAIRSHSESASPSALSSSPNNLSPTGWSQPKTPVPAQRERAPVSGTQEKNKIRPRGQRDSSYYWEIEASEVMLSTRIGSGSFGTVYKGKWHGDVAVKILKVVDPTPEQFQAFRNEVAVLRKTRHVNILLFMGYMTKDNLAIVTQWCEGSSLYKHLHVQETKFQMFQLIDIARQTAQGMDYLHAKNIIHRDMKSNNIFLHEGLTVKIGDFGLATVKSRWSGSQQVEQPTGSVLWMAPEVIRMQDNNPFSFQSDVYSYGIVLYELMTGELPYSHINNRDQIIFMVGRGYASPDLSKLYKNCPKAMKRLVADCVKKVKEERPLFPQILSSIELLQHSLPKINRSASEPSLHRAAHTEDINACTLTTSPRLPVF
B-Raf, sequence (P15056 whole entry): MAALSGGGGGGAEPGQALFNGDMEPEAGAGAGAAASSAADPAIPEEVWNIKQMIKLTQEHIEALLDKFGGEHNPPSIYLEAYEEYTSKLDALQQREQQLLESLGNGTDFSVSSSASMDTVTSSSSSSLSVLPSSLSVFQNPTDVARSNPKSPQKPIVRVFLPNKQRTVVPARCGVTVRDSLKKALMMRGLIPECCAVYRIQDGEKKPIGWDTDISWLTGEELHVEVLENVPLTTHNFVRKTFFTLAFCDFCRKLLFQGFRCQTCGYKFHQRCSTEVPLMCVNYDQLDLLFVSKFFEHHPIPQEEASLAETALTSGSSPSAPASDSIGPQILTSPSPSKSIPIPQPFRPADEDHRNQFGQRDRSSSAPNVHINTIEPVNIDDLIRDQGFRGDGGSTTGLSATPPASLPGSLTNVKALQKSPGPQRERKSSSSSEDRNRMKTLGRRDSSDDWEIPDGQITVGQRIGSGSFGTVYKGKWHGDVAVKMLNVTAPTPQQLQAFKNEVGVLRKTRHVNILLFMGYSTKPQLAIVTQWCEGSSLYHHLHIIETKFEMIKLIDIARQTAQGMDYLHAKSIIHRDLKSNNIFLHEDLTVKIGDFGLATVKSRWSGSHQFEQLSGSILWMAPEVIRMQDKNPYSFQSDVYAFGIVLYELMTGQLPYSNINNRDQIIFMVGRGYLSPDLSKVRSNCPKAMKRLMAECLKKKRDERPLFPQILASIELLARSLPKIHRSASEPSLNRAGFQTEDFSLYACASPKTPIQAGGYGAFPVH
B-Raf V600E, sequence (P15056 whole entry V600E): as the sequence (P15056 whole entry) above, with V600E counted along it
Kit, sequence (P10721 26-976): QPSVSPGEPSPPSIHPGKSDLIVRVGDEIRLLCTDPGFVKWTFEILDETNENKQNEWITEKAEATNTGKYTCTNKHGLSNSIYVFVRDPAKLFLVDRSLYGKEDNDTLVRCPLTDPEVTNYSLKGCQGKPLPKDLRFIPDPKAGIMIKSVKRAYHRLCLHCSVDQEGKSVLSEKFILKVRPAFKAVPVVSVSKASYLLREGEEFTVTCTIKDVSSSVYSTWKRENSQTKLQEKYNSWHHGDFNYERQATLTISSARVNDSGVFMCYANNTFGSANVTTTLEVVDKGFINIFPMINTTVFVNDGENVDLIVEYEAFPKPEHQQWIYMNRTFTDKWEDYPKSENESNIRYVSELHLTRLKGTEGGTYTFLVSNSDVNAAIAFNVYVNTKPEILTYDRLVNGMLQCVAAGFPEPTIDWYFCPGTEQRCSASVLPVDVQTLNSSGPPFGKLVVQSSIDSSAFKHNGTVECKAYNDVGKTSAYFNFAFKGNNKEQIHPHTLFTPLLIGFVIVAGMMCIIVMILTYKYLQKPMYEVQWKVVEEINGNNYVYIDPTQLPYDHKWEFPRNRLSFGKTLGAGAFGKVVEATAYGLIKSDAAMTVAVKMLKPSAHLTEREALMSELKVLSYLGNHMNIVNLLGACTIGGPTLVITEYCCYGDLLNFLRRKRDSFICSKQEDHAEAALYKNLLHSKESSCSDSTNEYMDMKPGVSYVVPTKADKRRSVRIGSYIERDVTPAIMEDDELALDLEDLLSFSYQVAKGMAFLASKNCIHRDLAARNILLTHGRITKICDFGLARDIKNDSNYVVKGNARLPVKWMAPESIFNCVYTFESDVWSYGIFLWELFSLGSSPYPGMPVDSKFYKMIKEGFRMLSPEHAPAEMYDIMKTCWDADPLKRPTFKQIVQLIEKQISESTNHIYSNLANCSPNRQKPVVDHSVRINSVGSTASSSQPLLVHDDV
Kdr, sequence (P35968 20-1356): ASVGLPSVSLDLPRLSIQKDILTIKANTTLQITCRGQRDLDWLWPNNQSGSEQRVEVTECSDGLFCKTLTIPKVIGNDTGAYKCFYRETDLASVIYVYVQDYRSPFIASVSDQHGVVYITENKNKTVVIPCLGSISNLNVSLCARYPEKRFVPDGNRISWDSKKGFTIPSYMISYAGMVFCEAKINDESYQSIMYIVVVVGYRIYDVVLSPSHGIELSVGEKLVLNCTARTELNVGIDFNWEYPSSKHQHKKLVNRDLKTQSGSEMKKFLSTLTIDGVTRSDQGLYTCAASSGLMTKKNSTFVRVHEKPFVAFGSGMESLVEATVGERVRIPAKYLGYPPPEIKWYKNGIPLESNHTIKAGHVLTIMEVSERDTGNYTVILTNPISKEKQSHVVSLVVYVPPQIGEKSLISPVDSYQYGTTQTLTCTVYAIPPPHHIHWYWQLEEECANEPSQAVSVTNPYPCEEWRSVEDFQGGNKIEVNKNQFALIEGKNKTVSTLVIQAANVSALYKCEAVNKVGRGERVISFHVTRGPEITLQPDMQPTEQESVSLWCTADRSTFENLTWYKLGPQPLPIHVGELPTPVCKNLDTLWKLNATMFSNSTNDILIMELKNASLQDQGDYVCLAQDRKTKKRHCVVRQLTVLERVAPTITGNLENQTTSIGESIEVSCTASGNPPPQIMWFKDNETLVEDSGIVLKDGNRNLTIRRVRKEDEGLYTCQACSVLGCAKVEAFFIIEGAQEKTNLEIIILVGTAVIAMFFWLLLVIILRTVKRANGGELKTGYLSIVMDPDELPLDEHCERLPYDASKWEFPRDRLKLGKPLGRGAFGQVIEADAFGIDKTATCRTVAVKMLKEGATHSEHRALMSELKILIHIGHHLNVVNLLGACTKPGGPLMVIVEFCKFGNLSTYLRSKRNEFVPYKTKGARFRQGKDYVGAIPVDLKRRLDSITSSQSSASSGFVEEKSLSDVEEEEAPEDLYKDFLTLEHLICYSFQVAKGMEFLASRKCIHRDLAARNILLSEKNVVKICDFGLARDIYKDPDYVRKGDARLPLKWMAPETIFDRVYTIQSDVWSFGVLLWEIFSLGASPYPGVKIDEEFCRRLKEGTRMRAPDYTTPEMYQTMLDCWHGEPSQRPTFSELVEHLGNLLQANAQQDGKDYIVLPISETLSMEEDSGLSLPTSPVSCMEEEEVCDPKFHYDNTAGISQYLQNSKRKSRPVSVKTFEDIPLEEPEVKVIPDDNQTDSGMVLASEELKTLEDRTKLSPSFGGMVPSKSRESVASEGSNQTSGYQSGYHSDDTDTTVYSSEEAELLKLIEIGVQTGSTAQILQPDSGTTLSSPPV

O=C(c1c(F)ccc(NS(=O)(=O)N2CCOCC2)c1F)c1c[nH]c2ncc(Cl)cc12 [P-2390, Morpholine-4-sulfonic acid [3-(5-chloro-1H-pyrrolo[2,3-b]pyridine-3-carbonyl)-2,4-difluoro-phenyl]-amide]
not listed: [7] | [8]
≤ 10 µM: all other assays above

O=C(c1cc(NS(=O)(=O)c2ccc(Cl)cc2)ccc1F)c1c[nH]c2ncccc12 [P-2113, 4-Chloro-N-[4-fluoro-3-(1H-pyrrolo[2,3-b]pyridine-3-carbonyl)-phenyl]-benzenesulfonamide]
≤ 10 µM: [1] | [7] | [2] | [3] | [6]

O=C(c1cc(NS(=O)(=O)c2cccc(OC(F)(F)F)c2)ccc1F)c1c[nH]c2ncccc12 [P-2117, N-[4-Fluoro-3-(1H-pyrrolo[2,3-b]pyridine-3-carbonyl)-phenyl]-3-trifluoromethoxy-benzenesulfonamide]
not listed: [4] | [5]
≤ 10 µM: all other assays above

CC(C)CS(=O)(=O)Nc1ccc(F)c(C(=O)c2c[nH]c3ncc(-c4ccc(Cl)cc4)cc23)c1F [P-2297, 2-Methyl-propane-1-sulfonic acid {3-[5-(4-chloro-phenyl)-1H-pyrrolo[2,3-b]pyridine-3-carbonyl]-2,4-difluoro-phenyl}-amide]
≤ 10 µM: [1] | [2] | [8] | [3]

CCCS(=O)(=O)Nc1ccc(F)c(C(=O)c2c[nH]c3ncc(C(=O)NOC)cc23)c1F [P-2238, 3-[2,6-Difluoro-3-(propane-1-sulfonylamino)-benzoyl]-1H-pyrrolo[2,3-b]pyridine-5-carboxylic acid methoxy-amide]
not listed: [3]
≤ 10 µM: all other assays above

O=C(c1cc(NS(=O)(=O)c2ccc(OC(F)(F)F)cc2)ccc1F)c1c[nH]c2ncccc12 [P-2116, N-[4-Fluoro-3-(1H-pyrrolo[2,3-b]pyridine-3-carbonyl)-phenyl]-4-trifluoromethoxy-benzenesulfonamide]
≤ 10 µM: [1] | [7] | [2] | [8] | [3]

CCCS(=O)(=O)Nc1ccc(F)c(C(=O)c2c[nH]c3ncccc23)c1 [P-2437, Propane-1-sulfonic acid [4-fluoro-3-(1H-pyrrolo[2,3-b]pyridine-3-carbonyl)-phenyl]-amide]
≤ 10 µM: [2] | [3] | [4] | [6]

O=C(c1cc(NS(=O)(=O)c2cccc(C(F)(F)F)c2)ccc1F)c1c[nH]c2ncccc12 [P-2115, N-[4-Fluoro-3-(1H-pyrrolo[2,3-b]pyridine-3-carbonyl)-phenyl]-3-trifluoromethyl-benzenesulfonamide]
≤ 10 µM: [1] | [2] | [3] | [6]
